Assay results as given in publication PMC6642016 (Nature chemical biology, 2019).

What was measured:
Type in all cases: biochemical
PtmI = target: T1, PtmI (Streptomyces pactum, UniProt A8R0J4); experiment: LC-MS of intact protein; details: covalent; holo-PtmI 200 μM, malonyl-CoA 8 mM, Tris-HCl pH 8.0, 30 °C
T1 sequence (A8R0J4 1-94): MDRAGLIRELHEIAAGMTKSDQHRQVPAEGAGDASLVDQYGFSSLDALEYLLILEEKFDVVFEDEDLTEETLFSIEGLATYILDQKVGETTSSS

PtmS = target: T2, PtmS (Streptomyces pactum, UniProt B7TWM6); experiment: HPLC and LC-MS of 3ABA-AMP; details: MgCl2 5 mM, Tris-HCl pH 8.0, 30 °C
T2 sequence (B7TWM6 1-505): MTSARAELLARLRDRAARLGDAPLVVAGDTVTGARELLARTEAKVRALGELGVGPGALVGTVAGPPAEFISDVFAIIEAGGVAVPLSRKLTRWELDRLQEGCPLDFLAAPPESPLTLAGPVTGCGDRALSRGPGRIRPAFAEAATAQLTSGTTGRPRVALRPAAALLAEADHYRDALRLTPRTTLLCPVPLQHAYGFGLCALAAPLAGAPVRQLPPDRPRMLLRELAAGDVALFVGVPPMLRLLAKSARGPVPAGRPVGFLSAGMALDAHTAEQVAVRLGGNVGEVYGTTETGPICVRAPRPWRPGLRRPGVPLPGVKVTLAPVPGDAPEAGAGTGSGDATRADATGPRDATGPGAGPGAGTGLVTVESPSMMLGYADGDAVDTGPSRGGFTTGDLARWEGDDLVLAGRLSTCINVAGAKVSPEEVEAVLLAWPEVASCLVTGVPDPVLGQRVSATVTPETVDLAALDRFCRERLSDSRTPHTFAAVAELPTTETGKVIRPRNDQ

PtmJ = target: T3, PtmJ (Streptomyces pactum, UniProt A8R0J5); experiment: mass spectrometry of GlcNAc-3ABA-SNAC; details: donor UDP-GlcNAc
T3 sequence (A8R0J5 1-318): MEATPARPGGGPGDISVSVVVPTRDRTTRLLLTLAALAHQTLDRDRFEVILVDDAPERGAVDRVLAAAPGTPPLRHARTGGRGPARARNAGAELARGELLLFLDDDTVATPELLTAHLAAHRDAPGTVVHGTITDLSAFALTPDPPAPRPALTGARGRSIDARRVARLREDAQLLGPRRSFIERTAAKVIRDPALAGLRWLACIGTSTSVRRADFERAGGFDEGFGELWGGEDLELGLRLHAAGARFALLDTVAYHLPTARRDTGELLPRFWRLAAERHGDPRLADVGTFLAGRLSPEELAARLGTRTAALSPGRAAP

CC(C)(COP(=O)(O)OP(=O)(O)OC[C@H]1O[C@@H](n2cnc3c(N)ncnc32)[C@H](O)[C@@H]1OP(=O)(O)O)[C@@H](O)C(=O)NCCC(=O)NCCSC(=O)CC(=O)O [malonyl-CoA]
LC-MS of intact protein (malonyl-PtmI, self-acylation) (PtmI): Incubation of the holo-PtmI with malonyl-CoA (Figure 3a) also led to the formation of malonyl-PtmI

Nc1ncnc2c1ncn2[C@@H]1O[C@H](COP(=O)(O)OP(=O)(O)OP(=O)(O)O)[C@@H](O)[C@H]1O [ATP]
HPLC and LC-MS of 3ABA-AMP; coupled pyrophosphate assay (PtmS; 3ABA 2 mM): incubated with 3ABA in the presence of ATP and MgCl2 to give 3-aminobenzoyl-AMP (3ABA-AMP)

Nc1cccc(C(=O)O)c1 [compound 3, 3-aminobenzoic acid]
HPLC and LC-MS of 3ABA-AMP; coupled pyrophosphate assay (PtmS; ATP 5 mM): the purified protein was incubated with 3ABA in the presence of ATP and MgCl2

CC(=O)NCCSC(=O)c1cccc(N)c1 [3ABA-SNAC]
mass spectrometry of GlcNAc-3ABA-SNAC (PtmJ): PtmJ reaction mixture showing that 3ABA-SNAC can be glycosylated to give GlcNAc-3ABA-SNAC
